Data: US20240139149A1, “THERAPEUTIC USES OF UROLITHIN DERIVATIVES” (Vandria SA, priority 2022, published 2024)
Entries after “also recorded” stand apart in the source; their conditions may differ.

Test system: splenic murine T cells
Test: Murine T cells stimulated with αCD3/αCD28 in presence of UA
Type: cell-based
Description: Splenic murine T cells were isolated from mice aged 6-20 weeks by negative selection with EasySep mouse T cell isolation kit (Stem cell) according to the manufacturer's instructions. To monitor T cell proliferation, purified T cells were loaded with CellTrace Violet (C34557 ThermoFisher Scientific). T cell activation was initiated using αCD3/CD28 activation beads (11456D; ThermoFisher Scientific) at a ratio of 25 μl dynabeads per 0.5×106 T-cells. Cells were activated with 25-50 μM Urolithin A (Tocris) or DMSO in T cell activation Medium (RPMI (ThermoFisher Scientific) 10% FBS (South America origin), 10 mM Hepes (Sigma), 1×Non-Essential Amino Acid, 1 mM Sodium Pyruvate, 50 µM β-Mercaptoethanol, 100 U/mL penicillin, 100 μg/mL streptomycin and 2 mM Glutamax (ThermoFisher Scientific) for the indicated durations. In selected experiments, cells were stimulated in the presence of inhibitors, namely TCFli (ICG-001; SelleckChem; […]) and PGC-lai (SR-18292, Sigma-Aldrich; […]). For subsequent analysis, activating beads were magnetically removed prior antibody staining. For human T cells, peripheral blood mononuclear cells were purified with a Ficoll-Paque (GE healthcare) gradient. T cells were enriched with EasySep Human T Cell Isolation Kit (StemCell) and activated with dynabead Human T-Activator CD3/CD28 for T Cell Expansion and Activation Kit (11131D; ThermoFisher Scientific), similar to murine T cell stimulation. When the subsequent activation and expansion of CAR T cells was studied, plates were coated with 1 μg/mL anti-human CD3 (αCD3; clone OKT3) and thawed PBMC were cultivated with […] anti-human CD28 (αCD28; 15E8, both Miltenyi Biotec) containing media for three days. (NutriT media (4Cell® Nutri-T media (Sartorius) containing 0.5% penicillin/streptomycin) supplemented with IL-7 (25 U/mL) and IL-15 […] (all Miltenyi Biotec)).
Tumors were minced and digested with Tumor & Tissue Dissociation Reagent (BD Horizon) for 30 min. The remaining organ pieces were filtered through a 70 µm cell strainer. Cells were then washed with PBS 1% BSA and 2 mM EDTA. Immune cells were enriched on a 30%/40%/75% Percoll gradient after a 1700 rpm 17 min centrifugation. Then, tumor immune filtrates or activated T cells were stained with Fixable Viability Dye-eF780 (65-0865-14; eBioscience), αCD45-FITC (30-F11; 11-0451-85; eBioscience), αCD11b-BV650 (M1/70; 56340; BD) α-CD11c-BV785 (HL3; 563735; BD), aLy6G-BV605 (53-6.7; 563005; BD), aLy6C-AF700 (HK1.4; 128024; Biolegend), aF4/80-PE (BM8; 12-4801-82, eBioscience), aPD-L1-PECy7 (MIH5; 25-5982-80, eBioscience); or with Fixable Viability Dye-eF780 (ebioscience), αCD45-BV786 (30-F11; 564225; BD), αCD4-BUV496 (GK1.5; 564667; BD), αCD8-BV605 (100744; Biolegend), aPD1-APC (J43; 17-9985-82; eBioscience), aTIM-3-PECy7 (RMT3-23; 119715; Biolegend), aCTLA4-PE (UC10-4B9; 106305; Biolegend) and aLag3-BV421 (C9B7W; 125221, Biolegend); or with Fixable Viability Dye-eF780 (eBioscience), αCD4-FITC (H129.19; 553650; BD), αCD8-APC (53-6.7; 17-0081-83; eBioscience), αCD44-AF400 (IM7; 103026; Biolegend), αCD62L-BV785 (MEL-14; 104440; Biolegend), αSca-1-PerCP-Cy5.5 (D7; 45-5981-82; eBioscience), αCD95-PE (Jo2; 554258; BD); or with Fixable Viability Dye-eF780 (eBioscience), αCD8-BV650 (53-6.7; 563234; BD), αCD4-BUV496 (GK1.5; 564667; BD), αCD127-APC (A7R34; 17-1271-82; eBioscience), αCD95-FITC (SA367H8;152605; Biolegend), αCD44-AF400 (IM7; 103026; Biolegend), αCD62L-BV785 (MEL-14; 104440; Biolegend), αSca-1-PerCP-Cy5.5 (D7; 45-5981-82; eBioscience) followed by intracellular staining of aTCF1-PE (S33-966; 564217; BD), or PGC-1α (sc-518025; D-5; santa cruz), or aCyclinD1 (MA5-28534, DCS-6; Invitrogen) with transcription factor buffer set kit (BD Biosciences). To study cytokine expression, tumor immune infiltrates were stimulated ex vivo with 20 ng/mL PMA and […] Ionomycin (Sigma) for 3 h in T cell activation medium with Brefeldin A (Biolegend). […]

O=c1oc2cc(O)ccc2c2ccc(O)cc12 [UA, Urolithin A]
lysosome formation in CD8+ T cells (6 h, UA 50 μM): enhanced | phosphorylation of Stat1 (6 h, UA 50 μM vs vehicle): equal phosphorylation | Parkin protein expression (24 h, UA 50 μM): stabilized | PGC-1α in Pink1−/− or Pgam5−/− CD8+ T cells (48 h, UA 50 μM): failed to enhance | cyclin D1 expression (48 h, UA 50 μM): reduced | CD8+ T cell division / proliferation (72 h): restricted; also recorded: restricts T cell proliferation | central memory cells (TCM) (CD8+ T cells, αCD3/αCD28): reduction | frequency of effector memory cells (TEM) (CD8+ T cells, αCD3/αCD28): remained unaltered | naïve CD44loCD62Lhi T cells (CD8+ T cells, αCD3/αCD28): significant increase | number of CD44-CD62L+Sca1hi TSCM (CD8+ T cells, αCD3/αCD28, up to 72 hours): significantly increased | UA-dependent expansion of CD44-CD62L+Sca1Hi TSCM cells in Pgam5−/− T cells (Pgam5−/− CD8+ T cells): blocked | TSCM phenotype in Pink1−/− CD8+ T cells (Pink1−/− CD8+ T cells, presence of UA): failed to exhibit a TSCM phenotype | UA-induced lysosome formation and decrease in mitochondrial content in Pink1−/− T cells (Pink1−/− T cells): prevented | expression of genes that code for immune checkpoints and effector molecules (RNA sequencing, 48 hours): reduced | β-catenin phosphorylation (after 6 hours): marked decrease | mitochondrial content in CD8+ T cells (after 24 hours): loss of mitochondrial content in a dose-dependent manner | PGC-1α expression (prolonged UA administration in vitro (48 h, 50 μM)): marked upregulation | transcription of Wnt target genes (qPCR, 24 h after stimulation): increased transcription | Pgam5 localization (sub-cellular fractionation immunoblot and immunofluorescence, 6 h): rapidly released into the cytoplasma | T cell death in vitro (various concentrations of UA): dose-dependent T cell death | mitochondrial membrane potential in CD8+ T cells (within six hours after UA administration): reduction | TSCM formation in CD4+ cells (αCD3/αCD28): did not promote enhanced TSCM formation | differentiation into effector T cells (Granzyme B, IFNγ) (αCD3/αCD28 beads, 48 h): blocked | Atg5, Atg7, p62, Lamp2 and Pink1 gene expression (αCD3/αCD28 stimulated T cells, 24 h, UA 50 μM): significant upregulation
